Assay results taken from patent publication US12408604B2, “Method for producing avenanthramide-rich oats using active elicitors” (KOREA RESEARCH INSTITUTE OF BIOSCIENCE AND BIOTECHNOLOGY, priority 2020, dated 2025).

Tests used:
Assay type in all cases: in vivo
Choyang oats = test: Production (content) of avenanthramides in germinated oats treated with elicitors, HPLC analysis; conditions: for production of avenanthramides compared to control group: Example 3, FIG. 2, SA vs control DW, ABA vs control EtOH; for production of avenanthramides over tested concentrations: Example 5, MJ 10-100 μM, ABA 10-300 μM; for synthesis amount / content of avenanthramides in oats compared to other elicitors: Examples 3 and 4, FIG. 2
Protocol: In an embodiment of the present invention, a domestic cultivated breed, Choyang oats, was used. The Choyang oat seeds were immersed for 12 hours, and then sterilized at 50° C. for 10 minutes and used. Two sheets of sterile filter paper were laid on a plant culture dish, poured with 7 ml of water, and then the sterilized Choyang oat seeds were placed and cold-treated at 4° C. for two days. The Choyang oat seeds were cultured under culture conditions of 25° C. and a photoperiod of 16L:8D.
Analysis of avenanthramides of germinated oats recovered in Example of the present invention was performed as follows. First, the obtained germinated oats were powdered using liquid nitrogen. 0.1 g of the oat powder was extracted with 1 ml of 80% methanol, and then sonicated at 50° C. for 20 minutes, extracted, and then centrifuged to obtain an oat extract from an upper layer. The extracted filtrate was dried by injecting air, and the dried product was dissolved in 200 μl of 80% methanol, and filtered using 0.2 μm PTFE (hydrophilic, ADVANTEC, Japan), and the sample was used for high-performance liquid chromatography (HPLC) analysis. A pump system used 4 solvent pumps (quaternary pumps), and a column used ZORBAX SB-18 ([…], 4.6×150 mm) from Agilent, and a mobile phase was analyzed by using gradient elution using water (A, 5% acetonitrile, 0.1% formic acid) and acetonitrile. (B, 0.1% formic acid).
After treatment with the elicitors for 3 days, the avenanthramides were harvested and HPLC was performed. The elicitors used at this time were methyl jasmonate (MJ), abscisic acid (ABA), salicylic acid (SA), ethephon (ET), methyl viologen (MV), and chitosan (CHI). DW was used as a solvent for MV, CHI, and SA, and EtOH was used as a solvent for ET, MJ, and ABA. A case of treating only DW and EtOH (0.1%), which are solvents of each elicitor, was set as a control.
Like in Example 3, 10 μM, 20 μM, 25 μM, 50 μM, 75 μM, and 100 μM of MJ and 10 μM, 20 μM, 25 μM, 50 μM, 75 μM, 100 μM, and 300 μM of ABA were treated by concentration on day 2 after germination, recovered on day 5 after germination, then frozen using liquid nitrogen, and stored at −80° C. until extraction and used. As a control, EtOH, a solvent of MJ and ABA, was treated at a concentration of 0.1%. The experimental results were shown in Tables 2 and 3 and FIGS. 4 and 5 below. […]

AsPAL = test: qRT-PCR transcriptional expression of avenanthramide biosynthetic gene AsPAL in elicitor-treated oats; conditions: single elicitor treatment, Example 4, FIG. 3
Protocol: (§1) Specifically, total RNA was isolated from the recovered oats, and cDNA was synthesized from the isolated total RNA using a First-Strand CDNA Synthesis Kit (Fermantas, Canada). By using the synthesized cDNA, qRT-PCR was performed on avenanthramide biosynthesis-related genes.
(§2) For the qRT-PCR amplification, a Quick Guide from BIOFACT was used, and a process of initial denaturation at 95° C. for 15 minutes and denaturation at 95° C. for 20 seconds, binding and elongation at […] for 40 seconds was repeated 40 times, and melting curve analysis was performed at 65° C. to 95° C. by 1° C. for 0.5 second.
(§3) Primers for avenanthramides biosynthesis genes and actin qRT-PCR used for the experiment were as follows.

AsHHT4 = test: qRT-PCR transcriptional expression of avenanthramide biosynthetic gene AsHHT4 in elicitor-treated oats; conditions: single elicitor treatment, Example 4, FIG. 3
Protocol: as §1, §2, §3

[1] = 10 μM elicitor, control EtOH 0.1%
[2] = 10 μM elicitor, treated day 2, recovered day 5 after germination
[3] = 20 μM elicitor, control EtOH 0.1%
[4] = 20 μM elicitor, treated day 2, recovered day 5 after germination
[5] = 25 μM elicitor, control EtOH 0.1%
[6] = 25 μM elicitor, treated day 2, recovered day 5 after germination
[7] = 50 μM elicitor, control EtOH 0.1%
[8] = 50 μM elicitor, treated day 2, recovered day 5 after germination
[9] = 75 μM elicitor, control EtOH 0.1%
[10] = 75 μM elicitor, treated day 2, recovered day 5 after germination
[11] = 100 μM elicitor, control EtOH 0.1%
[12] = 100 μM elicitor, treated day 2, recovered day 5 after germination
[13] = Example 3, elicitor treated on day 2 after germination induction for 3 days, concentration not given
[14] = Example 3, total avenanthramides, control DW for MV, CHI, SA, control EtOH for ET, MJ, ABA
[15] = 300 μM elicitor, treated day 2, recovered day 5 after germination

CC/C=C\C[C@H]1C(=O)CC[C@@H]1CC(=O)OC [MJ, methyl jasmonate] was tested, and the Compared to control (Choyang oats; [1]) was 37.41%, the avnA (Choyang oats; [2]) was 93.22 mg/kg, FW and the avnB (Choyang oats; [2]) was 163.98 mg/kg, FW. The avnC (Choyang oats; [2]) was 77.35 mg/kg, FW, the total (Choyang oats; [2]) was 334.55 mg/kg, FW and the Compared to control (Choyang oats; [3]) was 45.03%. For the same compound, the avnA (Choyang oats; [4]) was 98.32 mg/kg, FW, the avnB (Choyang oats; [4]) was 168.66 mg/kg, FW and the avnC (Choyang oats; [4]) was 86.12 mg/kg, FW. For the same compound, the total (Choyang oats; [4]) was 353.1 mg/kg, FW, the Compared to control (Choyang oats; [5]) was 57.97% and the avnA (Choyang oats; [6]) was 105.54 mg/kg, FW. The avnB (Choyang oats; [6]) was 200.86 mg/kg, FW, the avnC (Choyang oats; [6]) was 78.2 mg/kg, FW and the total (Choyang oats; [6]) was 384.6 mg/kg, FW. The Compared to control (Choyang oats; [7]) was 99.80%, the avnA (Choyang oats; [8]) was 147.03 mg/kg, FW and the avnB (Choyang oats; [8]) was 222.81 mg/kg, FW. For the same compound, the avnC (Choyang oats; [8]) was 116.59 mg/kg, FW, the total (Choyang oats; [8]) was 486.43 mg/kg, FW and the Compared to control (Choyang oats; [9]) was 137.67%. For the same compound, the avnA (Choyang oats; [10]) was 179.81 mg/kg, FW, the avnB (Choyang oats; [10]) was 268.73 mg/kg, FW and the avnC (Choyang oats; [10]) was 130.08 mg/kg, FW. For the same compound, the total (Choyang oats; [10]) was 578.62 mg/kg, FW, the Compared to control (Choyang oats; [11]) was 88.13% and the avnA (Choyang oats; [12]) was 138.82 mg/kg, FW. For the same compound, the avnB (Choyang oats; [12]) was 218.47 mg/kg, FW, the avnC (Choyang oats; [12]) was 100.73 mg/kg, FW and the total (Choyang oats; [12]) was 458.02 mg/kg, FW. For the same compound, the “production of avenanthramides compared to control group” value (shortened to “production … compared to control group”) (Choyang oats; CHI, MJ) was “significantly increased”, the avnA (Choyang oats; [13]) was 190.07 mg/kg, FW and the avnB (Choyang oats; [13]) was 260.43 mg/kg, FW. For the same compound, the avnC (Choyang oats; [13]) was 132.39 mg/kg, FW, the total (Choyang oats; [13]) was 582.89 mg/kg, FW and the Compared to control (Choyang oats; [14]) was 150.63%. For the same compound, the “production of avenanthramides over tested concentrations” value (Choyang oats) was “increased at all concentrations”, the “synthesis amount / content of avenanthramides in oats compared to other elicitors” value (Choyang oats) was “most increased” and the “synthesis amount / content of avenanthramides in oats compared to other elicitors” value (Choyang oats; listed as methyl jasmonate) was “increased most”. For the same compound, the “largest amount of avenanthramides produced” value (Choyang oats; MJ at a concentration of 75 μM (FIG. 4)) was “up to 578.6 mg/kg”, the “production of avenanthramides in oats” value (Choyang oats; MJ at concentrations of 10 μM to 100 μM) was “significantly increased” and the “expression of AsPAL gene” value (AsPAL) was “increased”. The “expression of AsHHT4 gene” value (AsHHT4) was “increased”.

O=C(O)c1ccccc1O [SA, salicylic acid] was tested, and the “production … compared to control group” value (Choyang oats; CHI, MJ) was “slightly decreased”, the avnA (Choyang oats; [13]) was 90.53 mg/kg, FW and the avnB (Choyang oats; [13]) was 149.58 mg/kg, FW. For the same compound, the avnC (Choyang oats; [13]) was 64.34 mg/kg, FW, the total (Choyang oats; [13]) was 304.45 mg/kg, FW and the Compared to control (Choyang oats; [14]) was −9.38%.

CC1=CC(=O)CC(C)(C)[C@@]1(O)/C=C/C(C)=C\C(=O)O [ABA, abscisic acid] was tested, and the Compared to control (Choyang oats; [1]) was 176.85%, the avnA (Choyang oats; [2]) was 177.8 mg/kg, FW and the avnB (Choyang oats; [2]) was 299.1 mg/kg, FW. The avnC (Choyang oats; [2]) was 197.11 mg/kg, FW, the total (Choyang oats; [2]) was 674.01 mg/kg, FW and the Compared to control (Choyang oats; [3]) was 185.33%. The avnA (Choyang oats; [4]) was 185.34 mg/kg, FW, the avnB (Choyang oats; [4]) was 319.67 mg/kg, FW and the avnC (Choyang oats; [4]) was 189.65 mg/kg, FW. For the same compound, the total (Choyang oats; [4]) was 694.66 mg/kg, FW, the Compared to control (Choyang oats; [5]) was 225.40% and the avnA (Choyang oats; [6]) was 202.56 mg/kg, FW. The avnB (Choyang oats; [6]) was 363.51 mg/kg, FW, the avnC (Choyang oats; [6]) was 226.14 mg/kg, FW and the total (Choyang oats; [6]) was 792.21 mg/kg, FW. The Compared to control (Choyang oats; [7]) was 240.45%, the avnA (Choyang oats; [8]) was 206.95 mg/kg, FW and the avnB (Choyang oats; [8]) was 385.73 mg/kg, FW. For the same compound, the avnC (Choyang oats; [8]) was 236.19 mg/kg, FW, the total (Choyang oats; [8]) was 828.87 mg/kg, FW and the Compared to control (Choyang oats; [9]) was 217.58%. The avnA (Choyang oats; [10]) was 211.62 mg/kg, FW, the avnB (Choyang oats; [10]) was 328.63 mg/kg, FW and the avnC (Choyang oats; [10]) was 232.94 mg/kg, FW. For the same compound, the total (Choyang oats; [10]) was 773.19 mg/kg, FW, the Compared to control (Choyang oats; [11]) was 184.80% and the avnA (Choyang oats; [12]) was 186.05 mg/kg, FW. The avnB (Choyang oats; [12]) was 309.78 mg/kg, FW, the avnC (Choyang oats; [12]) was 197.55 mg/kg, FW and the total (Choyang oats; [12]) was 693.38 mg/kg, FW. The Compared to control (Choyang oats; 300 μM elicitor, control EtOH 0.1%) was 189.98%, the avnA (Choyang oats; [15]) was 193.65 mg/kg, FW and the avnB (Choyang oats; [15]) was 328.02 mg/kg, FW. For the same compound, the avnC (Choyang oats; [15]) was 184.32 mg/kg, FW, the total (Choyang oats; [15]) was 705.99 mg/kg, FW and the “largest amount of avenanthramides produced” value (Choyang oats; ABA at a 50 μM concentration (FIG. 5)) was “up to 828.8 mg/kg”. For the same compound, the “production of avenanthramides in oats” value (Choyang oats; ABA at concentrations of 20 to 300 μM) was “significantly increased”, the “production of avenanthramide C” value (Choyang oats; Example 3) was “specifically increased the most” and the “production … compared to control group” value (Choyang oats; CHI, MJ) was “significantly increased”. The avnA (Choyang oats; [13]) was 193.78 mg/kg, FW, the avnB (Choyang oats; [13]) was 207.37 mg/kg, FW and the avnC (Choyang oats; [13]) was 241.72 mg/kg, FW. The total (Choyang oats; [13]) was 642.87 mg/kg, FW, the Compared to control (Choyang oats; [14]) was 176.42% and the “production of avenanthramides over tested concentrations” value (Choyang oats) was “increased at all concentrations”. The “synthesis amount / content of avenanthramides in oats compared to other elicitors” value (Choyang oats) was “most increased”, the “synthesis amount / content of avenanthramides in oats compared to other elicitors” value (Choyang oats; listed as abscisic acid) was “increased most” and the “expression of AsPAL gene” value (AsPAL) was “increased”. For the same compound, the “expression of AsHHT4 gene” value (AsHHT4) was “increased”.

In the case of O=P(O)(O)CCCl [ET, ethephon], the avnA (Choyang oats; [13]) is reported as 86 mg/kg, FW, the avnB (Choyang oats; [13]) is reported as 145.36 mg/kg, FW and the avnC (Choyang oats; [13]) is reported as 74.96 mg/kg, FW. The total (Choyang oats; [13]) was 306.32 mg/kg, FW and the Compared to control (Choyang oats; [14]) was 31.71%.

For C[n+]1ccc(-c2cc[n+](C)cc2)cc1 [MV, methyl viologen], the avnA (Choyang oats; [13]) was 95.37 mg/kg, FW, the avnB (Choyang oats; [13]) was 169.01 mg/kg, FW and the avnC (Choyang oats; [13]) was 84.14 mg/kg, FW. For the same compound, the total (Choyang oats; [13]) was 348.52 mg/kg, FW and the Compared to control (Choyang oats; [14]) was 3.74%.
